Among the test systems are ACHN; CAKI-1; HCT-116; HL-60; HT-29; M14; MDA-MB-231; NCI-H226; NCI-H460; NCI-H522; NCI/ADR-RES; OVCAR-4; OVCAR-5; OVCAR-8; SF-268; SF-295; SF-539; SK-MEL-5; SNB-75; TK-10.
Test in all cases: NCI tumour cell line growth inhibition, 48 h

The structures appear in SMILES notation.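 Each compound was tested at five concentrations against cells in 96-well plates for 48 hours. The concentration for 50% growth inhibition is given as GI50.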 Active and inactive are the calls of the source. Rule as the data show it: active = GI50 up to about 1.1 µM and inactive = higher.

Take `NCCCN(CCCCN(CCCN)C(=O)OCc1ccccc1)C(=O)OCc1ccccc1`: the GI50 was > 100 µM (inactive) in the assay on ACHN; > 100 µM (inactive) with CAKI-1; > 100 µM (inactive) with HCT-116; 29.8 µM (inactive) in the assay with HL-60; > 100 µM (inactive) in the assay on HT-29; > 100 µM (inactive) in the assay with M14. The GI50 is 35.6 µM (inactive) in the assay with MDA-MB-231; > 100 µM (inactive) in the assay with NCI-H226; 88.9 µM (inactive) in the assay on NCI-H460; 28.5 µM (inactive) in the assay on NCI-H522; > 100 µM (inactive) in the assay on NCI/ADR-RES; > 100 µM (inactive) with OVCAR-4. In addition, the GI50 was > 100 µM (inactive) with OVCAR-5; > 100 µM (inactive) in the assay on OVCAR-8; 35.3 µM (inactive) in the assay on SF-268; > 100 µM (inactive) in the assay with SF-295; > 100 µM (inactive) in the assay on SF-539; > 100 µM (inactive) with SK-MEL-5. For the same compound, the GI50 was 56.8 µM (inactive) in the assay on SNB-75 and > 100 µM (inactive) with TK-10.

On to `CCN(CC)CCCNc1n[n+]([O-])c2ccccc2[n+]1[O-]`, for which the GI50 in the assay with ACHN was 6.41 µM (inactive); with CAKI-1 it was 31.8 µM (inactive); in the assay with HCT-116, 11 µM (inactive); with HL-60, 3.57 µM (inactive); in the assay with HT-29 it was 11.1 µM (inactive); in the assay with M14, 22.4 µM (inactive). Besides, the GI50 in the assay with MDA-MB-231 was 6.01 µM (inactive); in the assay on NCI-H226, 20.5 µM (inactive); in the assay with NCI-H460, 3.99 µM (inactive); with NCI-H522, 8.22 µM (inactive); with NCI/ADR-RES, 42.4 µM (inactive); in the assay with OVCAR-4, 23.7 µM (inactive). Besides, the GI50 is 20.5 µM (inactive) in the assay with OVCAR-5; 8.51 µM (inactive) in the assay with OVCAR-8; 26.4 µM (inactive) in the assay with SF-268; 15 µM (inactive) in the assay on SF-295; 20.7 µM (inactive) with SF-539; 1.52 µM (inactive) in the assay on SK-MEL-5. Also, the GI50 is 23.1 µM (inactive) with SNB-75 and 4.07 µM (inactive) in the assay on TK-10.

For `O=C1N/C(=N/N=C/C(O)C(O)C(O)CO)N/C1=C\c1ccco1` (stereo not given), the GI50 in the assay on ACHN, with CAKI-1, in the assay on HCT-116, with HL-60, in the assay on HT-29 and with M14 was > 100 µM (inactive) in each case. Further, the GI50 in the assay with MDA-MB-231, in the assay with NCI-H226, in the assay on NCI-H460, in the assay with NCI-H522, with NCI/ADR-RES and in the assay on OVCAR-4 was > 100 µM (inactive) throughout. For the same compound, the GI50 in the assay on OVCAR-5, with OVCAR-8, with SF-268, in the assay on SF-295, in the assay on SF-539 and with SK-MEL-5 was > 100 µM (inactive) each time. Moreover, the GI50 in the assay on SNB-75 and in the assay on TK-10 was > 100 µM (inactive) in each case.

Turning to `CC1=C(C(=O)Nc2ccccc2)C2(CCCCC2)C(C#N)=C(SCC(=O)Nc2ccc(Br)cc2)N1`, the GI50 with ACHN was 4.45 µM (inactive); in the assay on CAKI-1 it was 4.76 µM (inactive); with HCT-116, 2.51 µM (inactive); with HL-60, 3.18 µM (inactive); in the assay on HT-29, 2.45 µM (inactive); in the assay with M14, 3.61 µM (inactive). For the same compound, the GI50 in the assay with MDA-MB-231 was 7.33 µM (inactive); in the assay on NCI-H226, 6.84 µM (inactive); in the assay on NCI-H460, 3.22 µM (inactive); in the assay with NCI-H522, 2.06 µM (inactive); in the assay with NCI/ADR-RES it was 3.88 µM (inactive); in the assay with OVCAR-4 it was 4.91 µM (inactive). The GI50 was 4.99 µM (inactive) in the assay with OVCAR-5; 5.58 µM (inactive) in the assay with OVCAR-8; 2.2 µM (inactive) in the assay on SF-268; 4.2 µM (inactive) in the assay with SF-295; 13.3 µM (inactive) with SF-539; 3.46 µM (inactive) in the assay on SK-MEL-5. Also, the GI50 with SNB-75 was 8.51 µM (inactive); in the assay with TK-10, 6.58 µM (inactive).

Take `CC(=O)OC(C)c1cc2c(s1)C(=O)c1sccc1C2=O` (stereo not given): the GI50 was 1.45 µM (inactive) in the assay with ACHN; 3.14 µM (inactive) with CAKI-1; 1.46 µM (inactive) in the assay with HCT-116; 1.74 µM (inactive) with HL-60; 1.96 µM (inactive) with HT-29; 0.14 µM (active) with M14. Besides, the GI50 in the assay with MDA-MB-231 was 1.34 µM (inactive); in the assay with NCI-H226, 2.04 µM (inactive); in the assay with NCI-H460 it was 1.06 µM (active); in the assay with NCI-H522, 1.27 µM (inactive); with NCI/ADR-RES, 1.71 µM (inactive); with OVCAR-4, 1.96 µM (inactive). Further, the GI50 with OVCAR-5 was 1.73 µM (inactive); with OVCAR-8, 1.81 µM (inactive); in the assay on SF-268, 0.989 µM (active); in the assay on SF-295, 0.851 µM (active); with SF-539 it was 0.268 µM (active); with SK-MEL-5, 0.139 µM (active). Also, the figures for the GI50 in the assay with SNB-75 and with TK-10 were 1.29 µM (inactive) and 1.85 µM (inactive), respectively.

Take `COC(=O)C1=C(C(=O)OC)SC2(S1)C(C(=O)OC)=C(C(=O)OC)Sc1c2ss/c1=N\c1ccc(Cl)cc1`: the GI50 in the assay on ACHN is 1.4 µM (inactive); with CAKI-1, 0.733 µM (active); with HCT-116, 0.283 µM (active); with HL-60 it was 1.11 µM (active); with HT-29 it was 0.525 µM (active); in the assay with M14, 1.43 µM (inactive). Besides, the GI50 with MDA-MB-231 was 0.948 µM (active); in the assay on NCI-H226, 1.79 µM (inactive); in the assay on NCI-H460, 0.333 µM (active); in the assay on NCI-H522, 0.352 µM (active); in the assay with NCI/ADR-RES, 1.84 µM (inactive); in the assay on OVCAR-4 it was 1.18 µM (inactive). For the same compound, the GI50 was 1.45 µM (inactive) with OVCAR-5; 1.32 µM (inactive) in the assay on OVCAR-8; 1.13 µM (inactive) in the assay on SF-268; 2.19 µM (inactive) with SF-295; 0.51 µM (active) with SF-539; 1.39 µM (inactive) with SK-MEL-5. The GI50 in the assay on SNB-75 was 1.07 µM (active); in the assay on TK-10, 1.4 µM (inactive).

Turning to `Cc1c(-c2ccc(-c3ccccc3F)cc2)nc2ccc(F)cc2c1C(=O)O` [BREQUINAR SODIUM], the GI50 is 0.153 µM (active) with ACHN; 0.904 µM (active) with CAKI-1; 0.104 µM (active) in the assay with HCT-116; 0.479 µM (active) with HL-60; 0.374 µM (active) in the assay on HT-29; 4.7 µM (inactive) with M14. The GI50 is 9.93 µM (inactive) with MDA-MB-231; 19.5 µM (inactive) in the assay on NCI-H226; 0.128 µM (active) in the assay on NCI-H460; 2 µM (inactive) in the assay with NCI-H522; 2.18 µM (inactive) in the assay on NCI/ADR-RES; 2.73 µM (inactive) in the assay with OVCAR-4. For the same compound, the GI50 in the assay with OVCAR-5 was 38.8 µM (inactive); with OVCAR-8, 0.325 µM (active); in the assay with SF-268, 0.372 µM (active); with SF-295, 0.243 µM (active); with SF-539, 0.346 µM (active); with SK-MEL-5 it was 1.39 µM (inactive). The results for the GI50 in the assay on SNB-75 and in the assay on TK-10 were 30.3 µM (inactive) and 16.3 µM (inactive), respectively.

Values taken from ChEMBL document CHEMBL1201862, “PubChem BioAssay data set” (2004).
